Publication PMC9639207 (RSC Advances, 2022)

Experiments:
[1] = target: dipeptidyl peptidase-IV (DPP-IV) (Homo sapiens, UniProt P27487); assay: In vitro proteolytic stability against DPP-IV; assay type: in vitro ADME; settings: for half-life: isolated enzyme dpp iv, pH 7.4
[2] = In vitro stability on incubation with mouse serum; assay type: in vitro ADME; settings: for half-life at 200 µM: mouse, serum

Chain of dipeptidyl peptidase-IV (DPP-IV) (P27487 whole entry, species assumed): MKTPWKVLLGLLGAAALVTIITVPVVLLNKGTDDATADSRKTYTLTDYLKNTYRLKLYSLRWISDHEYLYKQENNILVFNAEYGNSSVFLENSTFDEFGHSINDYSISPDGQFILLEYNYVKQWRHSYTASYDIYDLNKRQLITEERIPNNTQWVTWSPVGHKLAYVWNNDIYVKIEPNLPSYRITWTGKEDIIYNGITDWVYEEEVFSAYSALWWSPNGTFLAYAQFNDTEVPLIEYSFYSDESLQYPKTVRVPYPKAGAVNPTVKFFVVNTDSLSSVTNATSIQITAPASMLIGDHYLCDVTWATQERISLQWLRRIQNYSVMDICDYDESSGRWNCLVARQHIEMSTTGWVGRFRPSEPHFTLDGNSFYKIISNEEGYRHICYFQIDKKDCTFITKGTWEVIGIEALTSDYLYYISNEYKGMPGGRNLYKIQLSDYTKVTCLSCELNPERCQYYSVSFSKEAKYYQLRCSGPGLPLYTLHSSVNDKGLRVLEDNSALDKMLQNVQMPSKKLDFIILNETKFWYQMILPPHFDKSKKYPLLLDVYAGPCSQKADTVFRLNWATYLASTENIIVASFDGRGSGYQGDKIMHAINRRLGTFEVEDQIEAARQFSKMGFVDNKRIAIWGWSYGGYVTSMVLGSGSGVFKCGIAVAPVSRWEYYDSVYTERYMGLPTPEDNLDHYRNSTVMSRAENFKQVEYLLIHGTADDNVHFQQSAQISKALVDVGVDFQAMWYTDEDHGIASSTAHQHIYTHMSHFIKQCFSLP

Row | Compound | half-life [1] [h] | half-life at 200 µM [2] [h] | Fold in vitro half-life relative to native GLP-1, DPP-IV incubation ([1]; ratio to native GLP-1 (10.2 min), DPP-IV, 37 °C) [fold] | Fold in vitro half-life relative to native GLP-1, serum incubation ([2]; ratio to native GLP-1 (55.7 min), mouse serum, 37 °C) [fold]
1 | CC[C@H](C)[C@H](NC(=O)[C@H](CO)NC(=O)[C@H](CCC(=O)O)NC(=O)[C@H](CC(=O)N[C@@H]1O[C@H](CO)[C@@H](O[C@@H]2O[C@H](CO)[C@@H](O[C@@H]3O[C@H](CO[C@H]4O[C@H](CO)[C@@H](O)[C@H](O)[C@@H]4O[C@@H]4O[C@H](CO)[C@@H](O[C@@H]5O[C@H](CO)[C@H](O)[C@H](O)[C@H]5O)[C@H](O)[C@H]4NC(C)=O)[C@@H](O)[C@H](O[C@H]4O[C@H](CO)[C@@H](O)[C@H](O)[C@@H]4O[C@@H]4O[C@H](CO)[C@@H](O[C@@H]5O[C@H](CO)[C@H](O)[C@H](O)[C@H]5O)[C@H](O)[C@H]4NC(C)=O)[C@@H]3O)[C@H](O)[C@H]2NC(C)=O)[C@H](O)[C@H]1O)NC(=O)[C@H](C)NC(=O)[C@H](C)NC(=O)[C@H](CCC(N)=O)NC(=O)CNC(=O)[C@H](CCC(=O)O)NC(=O)[C@H](CC(C)C)NC(=O)[C@H](Cc1ccc(O)cc1)NC(=O)[C@H](CO)NC(=O)[C@H](CO)NC(=O)[C@@H](NC(=O)[C@H](CC(=O)O)NC(=O)[C@H](CO)NC(=O)[C@@H](NC(=O)[C@H](Cc1ccccc1)NC(=O)[C@@H](NC(=O)CNC(=O)[C@H](CCC(=O)O)NC(=O)[C@H](C)NC(=O)[C@@H](N)Cc1c[nH]cn1)[C@@H](C)O)[C@@H](C)O)C(C)C)C(=O)N[C@@H](C)C(=O)N[C@@H](Cc1c[nH]c2ccccc12)C(=O)N[C@@H](CC(C)C)C(=O)N[C@H](C(=O)N[C@@H](CCCCN)C(=O)NCC(=O)N[C@@H](CCCNC(=N)N)C(=O)NCC(=O)O)C(C)C [Glycan-GLP-1-3(G2)] | 3.088 ± 0.0183 | 12.3 ± 0.162 | – | –
2 | CC[C@H](C)[C@H](NC(=O)[C@H](CO)NC(=O)[C@H](CCC(=O)O)NC(=O)[C@H](CC(=O)N[C@@H]1O[C@H](CO)[C@@H](O)[C@H](O)[C@H]1O)NC(=O)[C@H](C)NC(=O)[C@H](C)NC(=O)[C@H](CCC(N)=O)NC(=O)CNC(=O)[C@H](CCC(=O)O)NC(=O)[C@H](CC(C)C)NC(=O)[C@H](Cc1ccc(O)cc1)NC(=O)[C@H](CO)NC(=O)[C@H](CO)NC(=O)[C@@H](NC(=O)[C@H](CC(=O)O)NC(=O)[C@H](CO)NC(=O)[C@@H](NC(=O)[C@H](Cc1ccccc1)NC(=O)[C@@H](NC(=O)CNC(=O)[C@H](CCC(=O)O)NC(=O)[C@H](C)NC(=O)[C@@H](N)Cc1c[nH]cn1)[C@@H](C)O)[C@@H](C)O)C(C)C)C(=O)N[C@@H](C)C(=O)N[C@@H](Cc1c[nH]c2ccccc12)C(=O)N[C@@H](CC(C)C)C(=O)N[C@H](C(=O)N[C@@H](CCCCN)C(=O)NCC(=O)N[C@@H](CCCNC(=N)N)C(=O)NCC(=O)O)C(C)C [Glc-GLP-1-3] | 0.768 ± 0.0583 | 2.31 ± 0.242 | – | –
3 | CC[C@H](C)[C@H](NC(=O)[C@H](Cc1ccccc1)NC(=O)[C@H](CCC(=O)O)NC(=O)[C@H](CCCCN)NC(=O)[C@H](C)NC(=O)[C@H](C)NC(=O)[C@H](CCC(N)=O)NC(=O)CNC(=O)[C@H](CCC(=O)O)NC(=O)[C@H](CC(C)C)NC(=O)[C@H](Cc1ccc(O)cc1)NC(=O)[C@H](CO)NC(=O)[C@H](CO)NC(=O)[C@@H](NC(=O)[C@H](CC(=O)O)NC(=O)[C@H](CO)NC(=O)[C@@H](NC(=O)[C@H](Cc1ccccc1)NC(=O)[C@@H](NC(=O)CNC(=O)[C@H](CCC(=O)O)NC(=O)[C@H](C)NC(=O)[C@@H](N)Cc1c[nH]cn1)[C@@H](C)O)[C@@H](C)O)C(C)C)C(=O)N[C@@H](C)C(=O)N[C@@H](Cc1c[nH]c2ccccc12)C(=O)N[C@@H](CC(C)C)C(=O)N[C@H](C(=O)N[C@@H](CC(=O)N[C@@H]1O[C@H](CO)[C@@H](O)[C@H](O)[C@H]1O)C(=O)NCC(=O)N[C@H](C(=O)NCC(=O)O)[C@@H](C)O)C(C)C [Glc-GLP-1-5] | 0.542 ± 0.0233 | 1.89 ± 0.197 | – | –
4 | CC[C@H](C)[C@H](NC(=O)[C@H](Cc1ccccc1)NC(=O)[C@H](CCC(=O)O)NC(=O)[C@H](CCCCN)NC(=O)[C@H](C)NC(=O)[C@H](C)NC(=O)[C@H](CCC(N)=O)NC(=O)CNC(=O)[C@H](CCC(=O)O)NC(=O)[C@H](CC(C)C)NC(=O)[C@H](Cc1ccc(O)cc1)NC(=O)[C@H](CO)NC(=O)[C@H](CO)NC(=O)[C@@H](NC(=O)[C@H](CC(=O)O)NC(=O)[C@H](CO)NC(=O)[C@@H](NC(=O)[C@H](Cc1ccccc1)NC(=O)[C@@H](NC(=O)CNC(=O)[C@H](CCC(=O)O)NC(=O)[C@H](C)NC(=O)[C@@H](N)Cc1c[nH]cn1)[C@@H](C)O)[C@@H](C)O)C(C)C)C(=O)N[C@@H](C)C(=O)N[C@@H](Cc1c[nH]c2ccccc12)C(=O)N[C@@H](CC(C)C)C(=O)N[C@H](C(=O)N[C@@H](CC(=O)N[C@@H]1O[C@H](CO)[C@@H](O[C@@H]2O[C@H](CO)[C@@H](O[C@@H]3O[C@H](CO[C@H]4O[C@H](CO)[C@@H](O)[C@H](O)[C@@H]4O[C@@H]4O[C@H](CO)[C@@H](O[C@@H]5O[C@H](CO[C@]6(C(=O)O)C[C@H](O)[C@@H](NC(C)=O)[C@H]([C@H](O)[C@H](O)CO)O6)[C@H](O)[C@H](O)[C@H]5O)[C@H](O)[C@H]4NC(C)=O)[C@@H](O)[C@H](O[C@H]4O[C@H](CO)[C@@H](O)[C@H](O)[C@@H]4O[C@@H]4O[C@H](CO)[C@@H](O[C@@H]5O[C@H](CO[C@]6(C(=O)O)C[C@H](O)[C@@H](NC(C)=O)[C@H]([C@H](O)[C@H](O)CO)O6)[C@H](O)[C@H](O)[C@H]5O)[C@H](O)[C@H]4NC(C)=O)[C@@H]3O)[C@H](O)[C@H]2NC(C)=O)[C@H](O)[C@H]1O)C(=O)NCC(=O)N[C@H](C(=O)NCC(=O)O)[C@@H](C)O)C(C)C [Glycan-GLP-1-5(G2S2)] | 4.088 ± 0.0217 | 12.9 ± 0.17 | 24.0 | 13.9
5 | CC[C@H](C)[C@H](NC(=O)[C@H](Cc1ccccc1)NC(=O)[C@H](CCC(=O)O)NC(=O)[C@H](CCCCN)NC(=O)[C@H](C)NC(=O)[C@H](C)NC(=O)[C@H](CCC(N)=O)NC(=O)CNC(=O)[C@H](CCC(=O)O)NC(=O)[C@H](CC(C)C)NC(=O)[C@H](Cc1ccc(O)cc1)NC(=O)[C@H](CO)NC(=O)[C@H](CO)NC(=O)[C@@H](NC(=O)[C@H](CC(=O)N[C@@H]1O[C@H](CO)[C@@H](O)[C@H](O)[C@H]1O)NC(=O)[C@H](CO)NC(=O)[C@@H](NC(=O)[C@H](Cc1ccccc1)NC(=O)[C@@H](NC(=O)CNC(=O)[C@H](CCC(=O)O)NC(=O)[C@H](C)NC(=O)[C@@H](N)Cc1c[nH]cn1)[C@@H](C)O)[C@@H](C)O)C(C)C)C(=O)N[C@@H](C)C(=O)N[C@@H](Cc1c[nH]c2ccccc12)C(=O)N[C@@H](CC(C)C)C(=O)N[C@H](C(=O)N[C@@H](CCCCN)C(=O)NCC(=O)N[C@@H](CCCNC(=N)N)C(=O)NCC(=O)O)C(C)C [Glc-GLP-1-1] | 0.503 ± 0.04 | 1.57 ± 0.127 | – | –
